# Laboratory results reported in patent US20230002357A1, “7-PYRIMIDINE-2-YL-OXY-INDAZOLE DERIVATIVES AND THEIR USE AS HERBICIDES” (SYNGENTA CROP PROTECTION AG, priority 2019, published 2023).
# How the values were obtained:
# Format in all cases: in vivo
# Conditions in all cases: 250 g/ha, evaluated after 13 days
# IPOHE [1] = experiment: Post-emergence Test, glasshouse, IPOHE
# Experimental: (§1) Seeds of a variety of test species are sown in standard soil in pots Amaranthus retoflexus (AMARE), Echinochloa crus-galli (ECHCG), Setaria faberi (SETFA)). After cultivation for one day (pre-emergence) or after 8 days cultivation (post-emergence) under controlled conditions in a glasshouse (at 24/16° C., day/night; 14 hours light; 65% humidity), the plants are sprayed with an aqueous spray solution derived from the formulation of the technical active ingredient in acetone/water (50:50) solution containing 0.5% Tween™ 20 (polyoxyethelyene sorbitan monolaurate, CAS RN 9005-64-5). Compounds are applied at 250 g/ha unless otherwise stated. The test plants are then grown in a glasshouse under controlled conditions in a glasshouse (at 24/16° C., day/night; 14 hours light; 65% humidity) and watered twice daily. After 13 days for pre- and post-emergence, the test is evaluated for the percentage damage caused to the plant. The biological activities are shown in the following table on a five-point scale (5=81-100%; 4=61-80%; 3=41-60%; 2=21-40%; 1=0-20%).
# [2] = system: Echinochloa crus-galli (ECHCG); experiment: Pre-emergence Test, glasshouse, ECHCG
# Experimental: as §1
# [3] = system: Echinochloa crus-galli (ECHCG); experiment: Post-emergence Test, glasshouse, ECHCG
# Experimental: as §1
# Setaria faberi (SETFA) [4] = experiment: Pre-emergence Test, glasshouse, SETFA
# Experimental: as §1
# ABUTH [5] = experiment: Pre-emergence Test, glasshouse, ABUTH
# Experimental: as §1
# Setaria faberi (SETFA) [6] = experiment: Post-emergence Test, glasshouse, SETFA
# Experimental: as §1
# [7] = system: Amaranthus retoflexus (AMARE); experiment: Post-emergence Test, glasshouse, AMARE
# Experimental: as §1
# IPOHE [8] = experiment: Pre-emergence Test, glasshouse, IPOHE
# Experimental: as §1
# [9] = system: Amaranthus retoflexus (AMARE); experiment: Pre-emergence Test, glasshouse, AMARE
# Experimental: as §1
# ABUTH [10] = experiment: Post-emergence Test, glasshouse, ABUTH
# Experimental: as §1
smiles,measurement,setting,value
N#Cc1cc(Cl)cnc1Oc1cccc2c(Cl)nn(CCCC(F)(F)F)c12 [Compound 1.008],"percentage damage caused to the plant, five-point scale, IPOHE",IPOHE [1],2 (2=21-40%)
same,"percentage damage caused to the plant, five-point scale, ECHCG",[2],4 (4=61-80%)
same,"percentage damage caused to the plant, five-point scale, ECHCG",[3],4 (4=61-80%)
same,"percentage damage caused to the plant, five-point scale, SETFA",Setaria faberi (SETFA) [4],4 (4=61-80%)
same,"percentage damage caused to the plant, five-point scale, ABUTH",ABUTH [5],2 (2=21-40%)
same,"percentage damage caused to the plant, five-point scale, SETFA",Setaria faberi (SETFA) [6],4 (4=61-80%)
same,"percentage damage caused to the plant, five-point scale, AMARE",[7],5 (5=81-100%)
same,"percentage damage caused to the plant, five-point scale, IPOHE",IPOHE [8],1 (1=0-20%)
same,"percentage damage caused to the plant, five-point scale, AMARE",[9],4 (4=61-80%)
same,"percentage damage caused to the plant, five-point scale, ABUTH",ABUTH [10],4 (4=61-80%)
"FC(F)(F)CCCn1nc(Cl)c2cc(Br)cc(Oc3ncc(Cl)cn3)c21 [Compound 1.010, 5-bromo-3-chloro-7-(5-chloropyrimidin-2-yl)oxy-1-(4,4,4-trifluorobutyl)indazole]","percentage damage caused to the plant, five-point scale, IPOHE",IPOHE [1],1 (1=0-20%)
same,"percentage damage caused to the plant, five-point scale, ECHCG",[2],2 (2=21-40%)
same,"percentage damage caused to the plant, five-point scale, ECHCG",[3],2 (2=21-40%)
same,"percentage damage caused to the plant, five-point scale, SETFA",Setaria faberi (SETFA) [4],2 (2=21-40%)
same,"percentage damage caused to the plant, five-point scale, ABUTH",ABUTH [5],1 (1=0-20%)
same,"percentage damage caused to the plant, five-point scale, SETFA",Setaria faberi (SETFA) [6],2 (2=21-40%)
same,"percentage damage caused to the plant, five-point scale, AMARE",[7],4 (4=61-80%)
same,"percentage damage caused to the plant, five-point scale, IPOHE",IPOHE [8],1 (1=0-20%)
same,"percentage damage caused to the plant, five-point scale, AMARE",[9],4 (4=61-80%)
same,"percentage damage caused to the plant, five-point scale, ABUTH",ABUTH [10],1 (1=0-20%)
"FC(F)(F)CCCn1ncc2cc(Br)cc(Oc3ncc(Cl)cn3)c21 [Compound 1.011, 5-bromo-7-(5-chloropyrimidin-2-yl)oxy-1-(4,4,4-trifluorobutyl)indazole]","percentage damage caused to the plant, five-point scale, IPOHE",IPOHE [1],1 (1=0-20%)
same,"percentage damage caused to the plant, five-point scale, ECHCG",[2],1 (1=0-20%)
same,"percentage damage caused to the plant, five-point scale, ECHCG",[3],1 (1=0-20%)
same,"percentage damage caused to the plant, five-point scale, SETFA",Setaria faberi (SETFA) [4],1 (1=0-20%)
same,"percentage damage caused to the plant, five-point scale, ABUTH",ABUTH [5],1 (1=0-20%)
same,"percentage damage caused to the plant, five-point scale, SETFA",Setaria faberi (SETFA) [6],1 (1=0-20%)
same,"percentage damage caused to the plant, five-point scale, AMARE",[7],3 (3=41-60%)
same,"percentage damage caused to the plant, five-point scale, IPOHE",IPOHE [8],1 (1=0-20%)
same,"percentage damage caused to the plant, five-point scale, AMARE",[9],1 (1=0-20%)
same,"percentage damage caused to the plant, five-point scale, ABUTH",ABUTH [10],1 (1=0-20%)
COc1cc(Oc2cccc3cnn(CCCC(F)(F)F)c23)ncn1 [Compound 1.012],"percentage damage caused to the plant, five-point scale, IPOHE",IPOHE [1],1 (1=0-20%)
same,"percentage damage caused to the plant, five-point scale, ECHCG",[2],1 (1=0-20%)
same,"percentage damage caused to the plant, five-point scale, ECHCG",[3],1 (1=0-20%)
same,"percentage damage caused to the plant, five-point scale, SETFA",Setaria faberi (SETFA) [4],1 (1=0-20%)
same,"percentage damage caused to the plant, five-point scale, ABUTH",ABUTH [5],1 (1=0-20%)
same,"percentage damage caused to the plant, five-point scale, SETFA",Setaria faberi (SETFA) [6],1 (1=0-20%)
same,"percentage damage caused to the plant, five-point scale, AMARE",[7],1 (1=0-20%)
same,"percentage damage caused to the plant, five-point scale, IPOHE",IPOHE [8],1 (1=0-20%)
same,"percentage damage caused to the plant, five-point scale, AMARE",[9],2 (2=21-40%)
same,"percentage damage caused to the plant, five-point scale, ABUTH",ABUTH [10],1 (1=0-20%)
"FC(F)(F)CCCn1ncc2c(Cl)ccc(Oc3ncc(Cl)cn3)c21 [Compound 1.013, 4-chloro-7-(5-chloropyrimidin-2-yl)oxy-1-(4,4,4-trifluorobutyl)indazole]","percentage damage caused to the plant, five-point scale, IPOHE",IPOHE [1],2 (2=21-40%)
same,"percentage damage caused to the plant, five-point scale, ECHCG",[2],5 (5=81-100%)
same,"percentage damage caused to the plant, five-point scale, ECHCG",[3],5 (5=81-100%)
same,"percentage damage caused to the plant, five-point scale, SETFA",Setaria faberi (SETFA) [4],5 (5=81-100%)
same,"percentage damage caused to the plant, five-point scale, ABUTH",ABUTH [5],2 (2=21-40%)
same,"percentage damage caused to the plant, five-point scale, SETFA",Setaria faberi (SETFA) [6],5 (5=81-100%)
same,"percentage damage caused to the plant, five-point scale, AMARE",[7],5 (5=81-100%)
same,"percentage damage caused to the plant, five-point scale, IPOHE",IPOHE [8],1 (1=0-20%)
same,"percentage damage caused to the plant, five-point scale, AMARE",[9],5 (5=81-100%)
same,"percentage damage caused to the plant, five-point scale, ABUTH",ABUTH [10],5 (5=81-100%)
N#Cc1cc(Cl)cnc1Oc1cccc2cnn(CCCC(F)(F)F)c12 [Compound 1.014],"percentage damage caused to the plant, five-point scale, IPOHE",IPOHE [1],2 (2=21-40%)
same,"percentage damage caused to the plant, five-point scale, ECHCG",[2],4 (4=61-80%)
same,"percentage damage caused to the plant, five-point scale, ECHCG",[3],2 (2=21-40%)
same,"percentage damage caused to the plant, five-point scale, SETFA",Setaria faberi (SETFA) [4],4 (4=61-80%)
same,"percentage damage caused to the plant, five-point scale, ABUTH",ABUTH [5],1 (1=0-20%)
same,"percentage damage caused to the plant, five-point scale, SETFA",Setaria faberi (SETFA) [6],3 (3=41-60%)
same,"percentage damage caused to the plant, five-point scale, AMARE",[7],4 (4=61-80%)
same,"percentage damage caused to the plant, five-point scale, IPOHE",IPOHE [8],1 (1=0-20%)
same,"percentage damage caused to the plant, five-point scale, AMARE",[9],4 (4=61-80%)
same,"percentage damage caused to the plant, five-point scale, ABUTH",ABUTH [10],4 (4=61-80%)
